One series concerns the target T1, dengue NS2B-NS3pro (Dengue virus type 2, UniProt P29990).
T1 construct: 6XHis (pQE30 vector) (N); made in house; host or cells: Escherichia coli XL1-Blue
The series is described as follows: Fluorogenic NS2B-NS3pro protease inhibition assay. In kind it is biochemical, DENV-2. The note with it: pH 8.5, 200 mM Tris–HCl, 20 μM Boc-Gly-Arg-Arg-AMC, 2 μM enzyme, 30 min pre-incubation, 30 min reaction, fluorescence ex 350/em 440 nm, triplicates, ± SD. The method, then: The bioassay used in this study was published by Rothan and co-workers. In brief, endpoint reaction mixtures with total volume of 200 μl were prepared consisted of 20 μM fluorogenic peptide substrate (Boc-Gly-Arg-Arg-AMC), 2 μM of recombinant NS2B-NS3pro, with or without RC-1 of varying concentrations, buffered at pH 8.5 with 200 mM Tris–HCl. The RC-1 was initially prepared in Tris–HCl buffer and assayed at five different concentrations, ranging from 9.3 - 150 μM. Three types of reactions which are buffer, buffer with enzyme and buffer with enzyme and different concentrations of RC-1were incubated at 28°C, 37°C and 40°C for 30 minutes. Subsequently, the substrate was added to each reaction mixture and incubated at same temperatures for another 30 minutes. Measurements were performed in triplicates using Tecan Infinite M200 Pro fluorescence spectrophotometer. Substrate cleavage was normalized against buffer only (control) and optimized at the emission at 440 nm upon excitation at 350 nm. The readings were then used for calculating Km values of peptide substrate and IC50 values of peptide inhibitors using non-linear regression models in GraphPad Prism 5.0 software as previously described.
Figure 4 The inhibition potential of RC-1 against the activity of DENV-2 NS2B-NS3pro. End point protease inhibition assay was carried out to evaluate the inhibitory potential of RC-1 against the protease’s ability to cleave a fluorogenic peptide substrate (Boc-Gly-Arg-Arg-AMC). The reaction mixtures consisted of 20 μM substrate, 2 μM of enzyme, with or without RC-1 of varying concentrations incubated at 28°C, 37°C or 40°C for 30 minutes. The results were normalized with the substrate alone and substrate with protease incubated at same temperatures. […] 2'; read as 1.2

For the next series, the system named is DENV-2 in Vero cells. The series is described as follows: DENV-2 RNA reduction in infected Vero cells by real-time PCR. In kind it is cell-based. As to conditions: for reduction in viral replication / reduction in total viral RNA copies: 150 μM RC-1, MOI of 2; for reduction in total viral RNA copies: ± SD. On the procedure: Three independent experiments were carried out for pre, simultaneous and post-infection treatments with RC-1 at 24, 48 and 72 hrs of each infection in triplicates. Vero cells were grown in a 24-well tissue culture plate (1 × 10^5 cells/well), incubated 24 hrs under optimal conditions and infected with DENV-2 (MOI of 2). For pre-treatment infection, 150 μM of RC-1 was added to the cells before virus inoculation and incubated for 24 hrs. Afterwards, DENV-2 supernatant was added, followed by incubation for 1 hr with gentle shaking every 10 min for optimal virus to cells contact. The virus supernatant was removed, and the cells were washed twice with fresh serum-free DMEM media to remove residual virus. New complete DMEM media were added and the cultures were incubated for 24, 48 and 72 hrs at 37°C, supplemented with 5% CO2. Same applications were used for simultaneous treatment infection except the peptide was mixed with the virus supernatant and incubated at 37°C for 1 h, and then inoculated onto Vero cells. The post-treatment infection was carried out after inoculation of Vero cells with DENV-2 and the complete DMEM medium was added containing the RC-1. Then, the cultures were incubated for 24, 48 and 72 hrs at 37°C and 5% CO2 with three wells of infected cells in each experiment were kept without RC-1 as controls. Cellular supernatants were collected and stored at −80°C for viral quantification using real time PCR.
For quantification of copy number of DENV-2 RNA, the standard curve was generated by 10-fold serial dilution of known copies of DENV-2 RNA. Viral RNA was extracted from culture supernatant using QIAmp viral RNA mini kit (Qiagen, Germany) according to the manufacturer’s instructions. A fragment located at the 5'UTR region of the virus genome was used to generate the primers. One-step RT-PCR using SyBr Green Master Kit (Qiagen, Germany) was used to conduct absolute quantification using ABI7300 machine from Applied Biosystems (Foster City, CA). The PCR profile was 1 cycle of 50°C for 2 min, 1 cycle of 95°C for 10 min, 40 cycles of 10 sec denaturation at 95°C, 20 sec annealing at 57.7°C with a single fluorescence emission measurement and 30 sec extension at 72°C, followed by 5 min at 72°C for final extension. Dissociation curve analysis was added to the end of each run. Results were analyzed using the company's Sequence Detection Software Version 1.3.
(§1) Figure 5 The percentage of viral reduction in Vero cells after different treatments with RC-1. (A) RC-1 was diluted to various concentrations (37.5, 75, 100, 125, 150 and 175 μM) with DMEM media supplemented with 2 % FBS and added to the cell culture. The viability of cells was analyzed at 24, 48 and 72 hrs using Non-Radioactive Cell Proliferation assay. (B) The cells were grown under the optimal conditions and infected with DENV-2 at the MOI of 2. The MNTD of RC-1 (150 μM) was used to treat infected Vero cells and the results were normalized with infected cells without RC-1 as controls. Pre, simultaneous and post-infection treatments with RC-1 were applied at 24, 48 and 72 hrs of each infection. The percentage of inhibition was the highest for simultaneous treatment compared to pre and post-treatment. (Two way ANOVA was used with Bonferroni post-test, P < 0.0001).
A general note: Quantitative PCR measures a nucleic acid by following its amplification.

Another series concerns Vero cells. The series is described as follows: Maximum non-toxic dose test (cell proliferation assay). In kind it is cell-based. The method, then: Vero cells were seeded at 1 × 10^4 cells per well in triplicate in 96 well plates and propagated at optimal conditions (37°C, 5% CO2 in humidified incubator). Recombinant RC-1 was diluted to serial concentrations (37.5, 75, 100, 125, 150 and 175 μM) with DMEM media supplemented with 2% FBS. Each dilution was tested in triplicate. Two control wells were included in each experiment: culture medium without RC-1 and culture medium with different concentrations of the RC-1 in the absence of cells to subtract the background value of RC-1 in the culture medium. The cell cultures were analyzed at 24, 48 and 72 hours using Non-Radioactive Cell Proliferation assay (Promega, USA) according to the manufacturer’s instructions.
as §1

For the next series, the system named is E. coli. The series is described as follows: Disc diffusion susceptibility test, E. coli. In kind it is cell-based. As to conditions: 0.1 mg/ml RC-1, Mueller-Hinton agar, clear circular zone. The method, then:
(§2) The disc diffusion susceptibility test was used to evaluate antimicrobial activity of the recombinant RC-1. The samples of recombinant RC-1 before and after refolding applications (100 μg/ml) were dropped onto a filter paper discs (0.1 mg/ml) and left to dry at room temperature. Then, the filters paper discs placed on an E. coli-inoculated Mueller-Hinton agar and a Saccharomyces cerevisiae inoculated yeast extract peptone dextrose (YPD) agar plates. Both E. coli and yeast inoculated plates were inoculated for 16 hrs at […] and 30°C, respectively.
(§3) Figure 2 Antimicrobial activity of recombinant RC-1 after refolding. Each sample of RC-1 before and after refolding (0.1 mg/ml) was dropped on filter papers discs and left to dry at room temperature. The dry filter paper discs were placed on E. coli and yeast-inoculated antibiotic-free Mueller-Hinton-gar and YPD-agar plates respectively and incubated overnight at 37°C (E. coli) or 30°C (yeast).
(A growth-free zone around the sample is the usual read-out of agar diffusion tests.)

The test system of series [1] is yeast (Saccharomyces cerevisiae). The series is described as follows: Disc diffusion susceptibility test, yeast. As to conditions: 0.1 mg/ml RC-1, YPD agar, 30°C, clear circular zone. In kind it is cell-based. The method, then:
as §2, §3

The conditions of series [2]: cited from earlier work. The source says: We conducted this study to evaluate the effect of RC-1, a cationic cyclic peptide on the activity of dengue protease as a target to inhibit replication of dengue virus. The RC-1 was produced inexpensively as a soluble recombinant peptide in E. coli and the tri-disulphide bonds were correctly reformed in alkaline and diluted environment. […] Furthermore, this peptide is able to provide long-lasting prote ...

For series [3] the following is noted: up to 500 μg/ml (250 μM); cited from earlier work. The text has this: (§4) It has been known that the compound toxicity could hinder the development of drugs against dengue virus.
The subject of the next series is different cell lines. As to conditions: up to 500 μg/ml (250 μM); cited from earlier work.
Source text: as §4

Where no end group is shown, it is not given here.

Take “GICRCICGRGICRCICGR (also: bicyclic or more (positions not given here)) [RC-1, retrocyclin-1, disulphide cyclic peptide, theta-defensin analogue, circular, cationic, tri-disulphide bonded (Cys3-Cys16, Cys5-Cys14, Cys7-Cys12)]”: the values for the IC50 against dengue NS2B-NS3pro (28°C), against dengue NS2B-NS3pro (37°C) and against dengue NS2B-NS3pro (40°C) were 46.1 ± 1.7 µM, 21.4 ± 1.6 µM and 14.1 ± 1.2 µM, respectively. The “reduction in viral replication” value in the series with DENV-2 in Vero cells (post-treatment, 48 hrs, triplicates) was found to be 30%; with DENV-2 in Vero cells (post-treatment, 72 hrs, triplicates), 45%; in the series with DENV-2 in Vero cells (pre-treatment (24 hrs before virus), 48 hrs, triplicates) it was 40%; in the series on DENV-2 in Vero cells (pre-treatment (24 hrs before virus), 72 hrs, triplicates) it was 38%; in the series on DENV-2 in Vero cells (simultaneous treatment, 72 hrs), 85%. Also, the “viral replication (in words)” value in the series with DENV-2 in Vero cells (pre, simultaneous and post infection treatment modes, maximum non-toxic dose) is given as “significantly declined”. Further, the “reduction in total viral RNA copies” value with DENV-2 in Vero cells (simultaneous treatment, 24 hrs, triplicates) is 45.5% ± 4.2; in the series on DENV-2 in Vero cells (simultaneous treatment, 72 hrs, triplicates) it was 85% ± 7.1. In addition, the cellular morphological abnormalities result in the series on Vero cells (Vero cells) is given as “no noticeable cellular morphological abnormalities”. In addition, the “cellular toxicity (in words)” value in the series with Vero cells (Vero cells, 150 μM) is “low cellular toxicity”. In addition, the “maximum non-toxic dose (MNTD)” value in the series with Vero cells (all three incubation periods, 24, 48 and 72 hrs, 37.5-175 μM tested, DMEM 2% FBS, triplicate) is 150 µM. Also, the antimicrobial activity entry (in the series with E. coli; in series [1]) was “exhibited antimicrobial activity” in each case. In addition, in series [2], the “fold potency of cyclic RC-1 over the open chain analogue” value is 3 fold. Further, in series [3], the haemolytic activity entry was “neither haemolytic activity nor cytotoxicity”. Also, the “cytotoxicity in different cell lines” value with different cell lines is listed as “neither haemolytic activity nor cytotoxicity”.

Source of the values: PMC3575220, “Inhibition of dengue NS2B-NS3 protease and viral replication in Vero cells by recombinant retrocyclin-1” (BMC Infectious Diseases, 2012).
